Assay results from patent US20260365642A1, “ANTIPARASITIC COMPOUNDS” (Animol Discovery, Inc., priority 2023, published 2026).

The compounds below were run on Dirofilaria immitis L1 larvae (assay: Screening against microfilaria (L1 larvae) of Dirofilaria immitis, survival/motility). Conditions: 72 h, read-out: Ranked D. immitis L1 MED Activity.
Type: in vivo
Method: Example 44. Screening of Compounds Against Microfilaria of Dirofilaria immitis
To evaluate the efficacy of compounds of the disclosure against Dirofilaria immitis, L1 stage larvae were exposed to various concentrations of the compounds to determine survival or paralysis of the larvae. Results are reported as the minimum effective dose (MED), defined as the concentration required to eliminate motility.
To perform the assay, microfilaria of Dirofilaria immitis were added to the wells of a microtiter plate containing buffer and the test compounds in DMSO. Microfilaria exposed to DMSO alone served as controls. An assessment was conducted at 72 hours to determine survival of the microfilaria.

Question: Which minimal effective concentration does the source give for `CCN(CC1CN(S(C)(=O)=O)CCO1)c1cc(N2CCCC3(CCCCC3)C2)nc(C(F)(F)F)n1` (centres unmarked) [Compound 38, N-ethyl-N-((4-(methylsulfonyl)morpholin-2-yl)methyl)-6-(2-azaspiro[5.5]undecan-2-yl)-2-(trifluoromethyl)pyrimidin-4-amine] here?
Answer: < 30000 µM

Question: With `CN(CC1CCN(S(C)(=O)=O)C1)c1cc(N2CCCC3(CCCCC3)C2)nc(C(F)(F)F)n1` (centres unmarked) [Compound 9, N-methyl-N-((1-(methylsulfonyl)pyrrolidin-3-yl)methyl)-6-(2-azaspiro[5.5]undecan-2-yl)-2-(trifluoromethyl)pyrimidin-4-amine] as the compound, how does the minimal effective concentration read?
Answer: < 30000 µM

Question: For `CN(c1cc(N2CCCC3(CCCCC3)C2)nc(C(F)(F)F)n1)C1CC2(CC(NS(C)(=O)=O)C2)C1` (centres unmarked) [Compound 7, N-(6-((6-(2-azaspiro[5.5]undecan-2-yl)-2-(trifluoromethyl)pyrimidin-4-yl)(methyl)amino)spiro[3.3]heptan-2-yl)methanesulfonamide], which minimal effective concentration is on record?
Answer: > 100000 µM

Question: With `CN(CC1CN(S(C)(=O)=O)CCS1(=O)=O)c1cc(N2CCCC3(CCCCC3)C2)nc(C(F)(F)F)n1` (centres unmarked) [Compound 42, 2-(((6-(2-azaspiro[5.5]undecan-2-yl)-2-(trifluoromethyl)pyrimidin-4-yl)(methyl)amino)methyl)-4-(methylsulfonyl)thiomorpholine 1,1-dioxide] as the compound, how does the minimal effective concentration read?
Answer: > 100000 µM

Question: With `CN(Cc1ccc(S(C)(=O)=O)cc1)c1cc(N2CCCC3(CCCCC3)C2)nc(C(F)(F)F)n1` [Compound 6, N-methyl-N-(4-(methylsulfonyl)benzyl)-6-(2-azaspiro[5.5]undecan-2-yl)-2-(trifluoromethyl)pyrimidin-4-amine] as the compound, how does the minimal effective concentration read?
Answer: > 100000 µM

Question: `CN(CC1CN(S(C)(=O)=O)CCO1)c1cc(N2CCC(F)(F)C3(CCCCC3)C2)nc(C(F)(F)F)n1` (centres unmarked) [Compound 23, 6-(5,5-difluoro-2-azaspiro[5.5]undecan-2-yl)-N-methyl-N-((4-(methylsulfonyl)morpholin-2-yl)methyl)-2-(trifluoromethyl)pyrimidin-4-amine] was tested. Which minimal effective concentration did it give?
Answer: < 10000 µM

Question: `CN(CC1CN(S(C)(=O)=O)CCO1)c1cc(N2CCCC3(CCC(F)(F)CC3)C2)nc(C(F)(F)F)n1` (centres unmarked) [Compound 40, 6-(9,9-difluoro-2-azaspiro[5.5]undecan-2-yl)-N-methyl-N-((4-(methylsulfonyl)morpholin-2-yl)methyl)-2-(trifluoromethyl)pyrimidin-4-amine] was tested. Which minimal effective concentration did it give?
Answer: < 30000 µM

Question: For `CN(CC1CN(S(C)(=O)=O)CCS1)c1cc(N2CCSC3(CCCCC3)C2)nc(C(F)(F)F)n1` (centres unmarked) [Compound 30, N-methyl-N-((4-(methylsulfonyl)thiomorpholin-2-yl)methyl)-6-(1-thia-4-azaspiro[5.5]undecan-4-yl)-2-(trifluoromethyl)pyrimidin-4-amine], which minimal effective concentration is on record?
Answer: < 10000 µM

Question: With `CN(CC1CN(S(C)(=O)=O)CCO1)c1cc(N2CCSC3(CCCCC3)C2)nc(C(F)(F)F)n1` (centres unmarked) [Compound 28, N-methyl-N-((4-(methylsulfonyl)morpholin-2-yl)methyl)-6-(1-thia-4-azaspiro[5.5]undecan-4-yl)-2-(trifluoromethyl)pyrimidin-4-amine] as the compound, how does the minimal effective concentration read?
Answer: < 10000 µM

Question: Which minimal effective concentration does the source give for `CN(C)CCN(CC1CN(S(C)(=O)=O)CCO1)c1cc(N2CCCC3(CCCCC3)C2)nc(C(F)(F)F)n1` (centres unmarked) [Compound 39, N1-(6-(2-azaspiro[5.5]undecan-2-yl)-2-(trifluoromethyl)pyrimidin-4-yl)-N2,N2-dimethyl-N1-((4-(methylsulfonyl)morpholin-2-yl)methyl)ethane-1,2-diamine] here?
Answer: < 10000 µM

Question: For `CS(=O)(=O)N1CC2(CC(Nc3cc(N4CCCC5(CCCCC5)C4)nc(C(F)(F)F)n3)C2)C1` [Compound 12, N-(6-(2-azaspiro[5.5]undecan-2-yl)-2-(trifluoromethyl)pyrimidin-4-yl)-2-(methylsulfonyl)-2-azaspiro[3.3]heptan-6-amine], which minimal effective concentration is on record?
Answer: > 100000 µM
